As usually defined, the % inhibition is the share of the control response that was lost under treatment. Read a high % inhibition as a strong effect.

Consider one substance from US20100216724A1, “USE OF F[…] (196-203 ) AS A […] AGENT” (priority 2007, published 2010).

The subject of this assay is drug-resistant Mycobacterium tuberculosis. Particulars: drug-resistant Mycobacterium tuberculosis growth; peptide 10 micrograms per ml; seven days.

Where no end group is shown, it is not given here.

With SRNRCNDQ-NH2, the “% inhibition” value turned out to be 0.0%.
